Data taken from the supplement of paper PMC8024199.
± gives the standard deviation of the averaged measurements.

What was measured:
Test in all cases: drug sensitivity score (DSS) (DSS score); higher = more sensitive (stronger growth inhibition); extreme values may be limits of the assay
[1] = system: Ba/F3 P210-BCR-ABL1 RUNX1-/- (mouse)
Outline: (§1)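 Mouse Ba/F3 cells carrying P210-BCR-ABL1, CRISPR/Cas9-edited at runx1 exon 4 or edited-control clones, were screened against a 528-compound library on pre-printed 384-well plates. Each compound ran at five concentrations spanning a 10,000-fold range, with 10,000 cells per well in RPMI with 10% FBS for 72 h at 37 °C and 5% CO2. CellTiter-Glo luminescence was scaled between vehicle and positive-control wells. A drug sensitivity score summarised each dose-response, averaged over two replicates.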

[2] = system: Ba/F3 P210-BCR-ABL1 RUNX1-/mut (mouse)
Outline: as §1

[3] = system: Ba/F3 P210-BCR-ABL1 RUNX1wt/wt control (mouse)
Outline: as §1

Compound	drug sensitivity score [1]	drug sensitivity score [2]	drug sensitivity score [3]
CNC(=O)CN1CCC(Oc2cc3c(Nc4cccc(Cl)c4F)ncnc3cc2OC)CC1 [Sapitinib]	0.35 ± 0.49	0	0
CC1=C2C[C@H]3[C@@H](CC[C@@H]4C[C@H](NS(C)(=O)=O)CC[C@@]43C)[C@@H]2CC[C@@]2(C1)O[C@@H]1C[C@H](C)CN[C@H]1[C@H]2C [Saridegib]	2.3 ± 0.28	2.15 ± 3	0
CC[C@H](CO)Nc1nc(NCc2ccccc2)c2ncn(C(C)C)c2n1 [Seliciclib]	1.3 ± 0.14	0.4 ± 0.57	0
O=C(/C=C\n1cnc(-c2cc(C(F)(F)F)cc(C(F)(F)F)c2)n1)NNc1cnccn1 [Selinexor]	24 ± 1.7	23 ± 0.99	16.55 ± 0.071
Cc1cc(F)c(C(=O)Nc2cccc(-c3nncn3C(C)C)n2)cc1-n1cnc(C2CC2)c1 [Selonsertib]	0	0	0
CN1CCN(C(=O)c2ccc3cc(CCNc4ncnc5ccc(C#N)cc45)ccc3c2)CC1 [Senexin B]	0.8	1.1 ± 1.6	0.15 ± 0.21
COCC[n+]1c2c(n(Cc3cnccn3)c1C)C(=O)c1ccccc1C2=O [Sepantronium bromide]	12.9 ± 1.5	17.1 ± 1.1	6.85 ± 0.49
Nc1nc2cc(-c3ccc4ncc(C(=O)N5CCOCC5)n4c3)ccc2o1 [Serabelisib]	1.5 ± 1.4	2.5 ± 3.5	0
O=C(O)c1ccc2c(c1)nc(Nc1cccc(Cl)c1)c1ccncc12 [Silmitasertib]	6.45 ± 0.071	7.25 ± 2	4.05 ± 0.21
CCC(C)(C)C(=O)O[C@H]1C[C@@H](C)C=C2C=C[C@H](C)[C@H](CC[C@@H]3C[C@@H](O)CC(=O)O3)[C@H]21 [Simvastatin]	0.4 ± 0.42	0.6 ± 0.85	0.05 ± 0.071
CO[C@H]1C[C@@H]2CC[C@@H](C)[C@@](O)(O2)C(=O)C(=O)N2CCCC[C@H]2C(=O)O[C@H]([C@H](C)C[C@@H]2CC[C@@H](O)[C@H](OC)C2)CC(=O)[C@H](C)/C=C(\C)[C@@H](O)[C@@H](OC)C(=O)[C@H](C)C[C@H](C)/C=C/C=C/C=C/1C [Sirolimus]	7.6 ± 1.7	8.4 ± 3.4	0.5 ± 0.71
COCCNCc1ccc(-c2cc3nccc(Oc4ccc(NC(=O)C5(C(=O)Nc6ccc(F)cc6)CC5)cc4F)c3s2)nc1 [Sitravatinib]	8.95 ± 0.35	4.6 ± 0.71	0
Cc1c(C(=O)Nc2ccc(N3C[C@@H](C)O[C@@H](C)C3)nc2)cccc1-c1ccc(OC(F)(F)F)cc1 [Sonidegib]	1.3 ± 1.8	1.3 ± 1.8	0.15 ± 0.21
C=CCN(/C=C1/C(=O)O[C@H](COC)[C@@]2(C)C1=C(O)C(=O)C1=C2[C@H](OC(C)=O)C[C@]2(C)C(=O)CC[C@@H]12)CC=C [Sonolisib]	1.7 ± 1.1	0.7 ± 0.99	0
C=CC(=O)Nc1cccc(Nc2nc(Nc3ccc(OCCOC)cc3)ncc2F)c1 [Spebrutinib]	0	0	0
CC(C)n1cnc2c(NCCc3ccc(O)cc3)nc(-c3csc4ccccc34)nc21 [StemRegenin 1]	3.45 ± 2.9	3.05 ± 3.9	0.8 ± 0.28
CC(C)(O)CC(=O)NCCn1ccc2ncnc(Nc3ccc(Oc4cccc(C(F)(F)F)c4)c(Cl)c3)c21 [TAK-285]	0	0.5 ± 0.71	0
CCS(=O)(=O)c1cccc(-c2cc(C(=O)NC3CCN(C)CC3)c(C)c3[nH]c4ncc(C)cc4c23)c1 [TAK-901]	5.8 ± 0.99	3.55 ± 0.49	0

Compound	drug sensitivity score [1]	drug sensitivity score [2]	drug sensitivity score [3]
Cc1cccc(-c2[nH]c(CNc3ccccc3F)nc2-c2ccc3ncnn3c2)n1 [TEW-7197]	2.35 ± 3.3	0	0
Nc1nc(N)c2nc(-c3cccc(O)c3)c(-c3cccc(O)c3)nc2n1 [TG100-115]	3.1 ± 0.57	4.65 ± 0.49	0
CC(C)Oc1ccc(-c2nn([C@@H](C)c3oc4ccc(F)cc4c(=O)c3-c3cccc(F)c3)c3ncnc(N)c23)cc1F [TGR-1202]	3.4 ± 0.99	1.2 ± 1.4	0
Cc1cc(C(C)Nc2ccccc2)c2nc(N3CCOCC3)cc(=O)n2c1 (stereo not given) [TGX-221]	2.7 ± 2.4	2.4 ± 3.1	0
Nc1nc(NC2CC2)cc(-c2cccc(Cl)c2Cl)n1 [TH588]	5.45 ± 0.35	4.45 ± 4.7	3.6 ± 1.1
Clc1ccccc1C(c1ccccc1)(c1ccccc1)n1cccn1 [TRAM-34]	0	0	0
CN(C(=O)c1ccc(F)cc1C(F)(F)F)C1CCN(c2nnc(-c3ccnn3C)c3ccccc23)CC1 [Taladegib]	0.85 ± 1.2	1.8 ± 2.5	0
Cn1ncnc1[C@H]1c2n[nH]c(=O)c3cc(F)cc(c23)N[C@@H]1c1ccc(F)cc1 [Talazoparib]	15 ± 5.5	16.2 ± 5	2.7 ± 0.14
C[C@@H]1CN(Cc2ccc(F)cc2)[C@@H](C)CN1C(=O)c1cc2c(C(=O)C(=O)N(C)C)cn(C)c2cc1Cl [Talmapimod]	0.25 ± 0.35	0.1 ± 0.14	0
COc1cc(Nc2ncc(F)c(Nc3ccc4c(n3)NC(=O)C(C)(C)O4)n2)cc(OC)c1OC [Tamatinib]	7.15 ± 0.78	4.15 ± 0.071	5.8 ± 0.28
CC/C(=C(\c1ccccc1)c1ccc(OCCN(C)C)cc1)c1ccccc1 [Tamoxifen]	6.2 ± 1.6	7.5 ± 1.3	3.5 ± 0.28
O[C@H]1CC[C@H](Nc2ncc3nc(Nc4c(F)cc(F)cc4F)n([C@H]4CCOC4)c3n2)CC1 [Tanzisertib]	1.55 ± 0.78	1 ± 1.4	0
Cc1nc(-c2cn3c(n2)-c2ccc(-c4cnn(C(C)(C)C(N)=O)c4)cc2OCC3)n(C(C)C)n1 [Taselisib]	4.65 ± 0.49	3.1 ± 4.1	0.4 ± 0.57
COc1cccc2c1c(O)c(C(=O)N(C)c1ccc(C(F)(F)F)cc1)c(=O)n2C [Tasquinimod]	0.75 ± 1.1	2.15 ± 3	0.5 ± 0.71
CCN(c1cc(-c2ccc(CN3CCOCC3)cc2)cc(C(=O)NCc2c(C)cc(C)[nH]c2=O)c1C)C1CCOCC1 [Tazemetostat]	0.45 ± 0.64	0.25 ± 0.35	0
CNC(=O)c1cc(COc2nnc(Nc3ccc(Cl)cc3)c3ccoc23)ccn1 [Telatinib]	0.1 ± 0.14	0	0
CN1CCC(COc2cnc(-c3cccc(Cn4nc(-c5cccc(C#N)c5)ccc4=O)c3)nc2)CC1 [Tepotinib]	2.8 ± 1.3	2.5 ± 3.5	0
